Experimental data as given in patent US11311568B2, “Therapeutic pharmaceutical composition for cancer including miRNA” (Purmx Therapeutics, Inc., priority 2017, dated 2022).

Tests used:
[1] = test system: breast cancer stem cell strain (MDA-MB231-luc-D3H2LN cells); assay: Cell growth inhibition, cell count after transfection; format: cell-based; conditions: final concentration 12.5 nM, four days after transfection, FIG. 10 top
Method: miR-3140-3p was transfected in a highly metastatic cancer cell strain of breast cancer (MDA-MB231-luc-D3H2LN cells), and cell proliferation was observed. […] Transfection was carried out with the following protocol.
1: To a 35 mm dish were added 500 μL of serum free medium (SFM) and 5 μL of RNAiMAX (Invitrogen).
2: To the solution from 1 was added 12.5 μL each of miR-Control or miR-3140-3p, miR-22-3p, and miR-34a-5p (stock conc. 2 μM) (final concentration 12.5 nM).
(§1) 3: This was incubated at room temperature for 20 minutes.
4: 1.5 mL of a cell suspension diluted to 6.7×10^4 cells/mL was added to the 35 mm dish.
(§2) 5: This was incubated at 37° C. under 5% CO2 condition.
6: The cells were counted four days after transfection.

[2] = test system: malignant pleural mesothelioma cell EHMES-10; assay: Calculation of IC50 value, cell survival with Cell Counting Kit 8; format: cell-based; conditions: five days after transfection
Method: The IC50 value of miR-3140-3p was calculated with malignant pleural mesothelioma cell EHMES-10.
The protocol therefor is shown below.
1: To 25 μL of serum free medium (SFM) was added 0.25 μL of RNAiMAX (Invitrogen).
2: miR-Control and miR-3140-3p were serially diluted so that the final concentrations will be 40 nM, 20 nM, 10 nM, 5 nM, 1 nM, 500 pM, 100 pM, 50 pM, 10 pM, 5 pM, and 1 pM, and mixed with SFM/RNAiMAX complex.
as §1
4: 75 μL of each of cells at 6.7×10^4 cells/mL were added to each well.
as §2
6: Five days after transfection, the survival rates of cells were investigated with Cell Counting Kit 8 (DOJINDO). The protocol therefor is shown below.
(i) Cell Counting Kit was diluted 10-folds with a medium.
(ii) 200 μL of each of the diluted Cell Counting Kit was added to each well.
(iii) This was incubated at 37° C. under 5% CO2 condition for 1 hour.
(iv) The values at 450 nm/600 nm were measured with a plate reader.
Note that the same control RNA as that used in Experiment 7 was employed as the control.

miR-3140-3p: Mature-miRNA, AGCUUUUGGGAAUUCAGGUAGU (SEQ ID NO. 2) (listed as RNA, chemistry not given here; listed as Homo sapiens)
cell growth inhibition effect (cell count) [1]: extremely high cell growth inhibition effect
growth inhibition effect (survival rates of cells, Cell Counting Kit 8) ([2]; EHMES-10, 1 pM to 40 nM, FIG. 29): growth inhibition effect against malignant pleural mesothelioma cell strain EHMES-10 even at a very low concentration
IC50 ([2]; EHMES-10, final concentration, Cell Counting Kit 8): 0.57 nM
